Data from US20220017863A1, “SIRT2-ABLATED CHIMERIC T CELLS” (H. Lee Moffitt Cancer Center and Research Institute, Inc., priority 2019, published 2022).
“Also recorded” adds a separate entry of the source.

Experiments:
Type in all cases: cell-based
[1] = biological target: T1, Sirt2 deacetylase activity (Homo sapiens, UniProt Q8IXJ6); experiment: Western blot of acetylated α-tubulin in human CD3+ enriched T cells; details: 48 hr
T1 construct: endogenous in cells; host or cells: human CD3+ T cells enriched from PBMC of healthy donors
T1 sequence (Q8IXJ6 1-389): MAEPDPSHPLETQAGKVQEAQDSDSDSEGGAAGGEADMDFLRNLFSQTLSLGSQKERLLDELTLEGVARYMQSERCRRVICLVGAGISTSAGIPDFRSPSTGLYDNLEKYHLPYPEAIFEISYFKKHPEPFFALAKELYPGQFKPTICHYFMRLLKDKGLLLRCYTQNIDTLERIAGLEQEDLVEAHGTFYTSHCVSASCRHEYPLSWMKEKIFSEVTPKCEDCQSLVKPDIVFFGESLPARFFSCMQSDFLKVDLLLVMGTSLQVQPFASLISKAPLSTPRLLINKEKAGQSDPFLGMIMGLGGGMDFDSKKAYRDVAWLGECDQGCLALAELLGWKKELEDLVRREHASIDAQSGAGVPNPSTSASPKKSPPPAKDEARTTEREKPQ
Description: (§1) Human peripheral blood mononuclear cells (PBMC) were obtained from healthy donors by density gradient centrifugation using Ficoll-Paque™ PLUS Media (GE Healthcare). CD3^+ lymphocytes were negatively enriched using human Pan T cell isolation Kit™ (Miltenyi Biotec).
Whole cell lysates were prepared using lysis buffer (Pierce RIPA buffer, ThermoFisher Scientific) supplemented with cOmplete™ Protease Inhibitor Cocktail and PhosSTOP Phosphatase Inhibitor (Roche Applied Science).
Cell lysates (20 ug) or IP samples were loaded onto 10% SDS-PAGE and separated by electrophoresis followed by semi-dry transfer into polyvinylidene fluoride membranes (Immun-Blot PVDF membrane, Bio-Rad) using Trans-Blot Turbo transfer system (Bio-Rad). After transfer, the membranes were blocked at room temperature with Tris-buffered saline (TBS) containing 0.05% Tween-20 (TBST) and 5% (w/v) milk for 1 h and then incubated overnight at 4° C. with a specific primary antibody (indicated below). […] After washing 3 times with TBST, bound antibodies were detected by chemiluminescence using the Pierce™ ECL Western Blotting Substrate and the Super Signal West Femto Maximum Sensitivity Substrate kits (ThermoFisher Scientific). […]

[2] = system: human TILs; experiment: IFN-γ ELISPOT on human TILs from NSCLC patients; details: AGK2 vs vehicle, 5 patient samples
[3] = system: human CD3+ T cells; experiment: Seahorse extracellular flux analysis of CD3-stimulated human CD3+ T cells from healthy donors; details: anti-CD3 plus inhibitor vs vehicle, 48 hr
Description: as §1
Extracellular acidification rates (ECAR) were measured using the Seahorse XF analyzer (Agilent). Glycolysis Stress Test (GST) and glycolytic rate assay (GRA) were performed according to kit manufacturer's instructions.
The day of the assay, 2×10^5 activated T cells were plated in Cell-Tak (Corning)-coated XF96 plates in XF media (XF RPMI Medium pH 7.4 containing 2 mM L-glutamine only for GST or supplemented with 10 mM glucose, 2 mM L-glutamine and 1 mM sodium pyruvate for GRA test, all from Agilent technologies) via centrifugation to ensure cell attachment. Cells were equilibrated for 1 hour in a non-CO2 incubator before starting the assay.
For GST, ECAR was measured under basal conditions and in response to 10 mM glucose, 1 μM oligomycin and 50 mM 2-DG successively to calculate basal glycolytic rate, glycolytic capacity (in response to oligomycin), and glycolytic reserve (glycolytic capacity−basal rate). For GRA, ECAR was measured under basal conditions and in response to 0.5 μM rotenone+0.5 μM antimycin A and 50 mM 2-DG successively to calculate basal glycolysis and compensatory glycolysis (in response to rotenone+antimycin A). Results were normalized to total protein quantified using Pierce™ BCA Protein Assay Kit (ThermoFisher Scientific).
Human peripheral blood mononuclear cells (PBMC) were obtained from healthy donors by density gradient centrifugation using Ficoll-Paque™ PLUS Media (GE Healthcare). CD3^+ lymphocytes were negatively enriched using human Pan T cell isolation Kit™ (Miltenyi Biotec). […].
Extracellular acidification rate (ECAR) and oxygen consumption rate (OCR) were measured using the Seahorse XF analyzer (Agilent technologies). Glycolysis Stress Test (GST), glycolytic rate assay (GRA) and mitochondrial stress test (MST) were purchased from Agilent technologies and performed according to the kit manufacturer's instructions. […]
For GST, ECAR and OCR were measured under basal conditions and in response to 10 mM glucose, 1 μM oligomycin and 50 mM 2-DG successively to calculate basal glycolytic rate, glycolytic capacity (in response to oligomycin), and glycolytic reserve (glycolytic capacity basal rate).
For GRA, ECAR and OCR were measured under basal conditions and in response to 0.5 μM roteone/antimycin A and 50 mM 2-DG successively to calculate basal glycolysis and compensatory glycolysis (in response to rotenone/antimycin A).

capacity to block Sirt2 deacetylase activity, monitored by acetylated α-tubulin levels [1]: confirmed; also recorded: validated
SMILES: N#C/C(=C/c1ccc(-c2cc(Cl)ccc2Cl)o1)C(=O)Nc1cccc2ncccc12 [AGK2]
IFN-γ production (effector function) [2]: increases | OxPhos [3]: increased | aerobic glycolysis (ECAR/PER) [3]: increases; also recorded: augments
